Experimental data reported in article PMC8119466, “A screen of FDA-approved drugs identifies inhibitors of protein tyrosine phosphatase 4A3 (PTP4A3 or PRL-3)” (Scientific Reports, 2021).

How the values were obtained:
[1] = biological target: T1, recombinant PRL-2 (Homo sapiens, UniProt Q12974); assay: In vitro phosphatase assay (DiFMUP hydrolysis), PRL-2; type: biochemical; settings: for IC50: 2.5 µM protein, DiFMUP at KM, read-out: Calculated IC50, PRL-2 phosphatase activity; for % Phosphatase Activity (compared to DMSO) PRL-2: FDA-approved drug screen;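 for all read-outs here: PRL-2 activity read as DiFMUP hydrolysis after 20 min at room temperature with drug, enzyme first pre-reduced at 4 °C for 20 min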
T1 construct: 6xHis (N, cleaved yes); made in house; host or cells: E. coli One Shot BL21 Star
T1 sequence (Q12974 1-167): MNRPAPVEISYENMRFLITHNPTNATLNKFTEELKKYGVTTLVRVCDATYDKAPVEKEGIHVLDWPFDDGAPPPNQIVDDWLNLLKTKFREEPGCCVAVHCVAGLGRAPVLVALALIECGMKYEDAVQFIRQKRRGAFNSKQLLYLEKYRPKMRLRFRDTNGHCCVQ

[2] = biological target: T2, recombinant PRL-3 (Homo sapiens, UniProt O75365); assay: In vitro phosphatase assay (DiFMUP hydrolysis), PRL-3; type: biochemical; settings: for IC50: 2.5 µM protein, DiFMUP at KM, read-out: Calculated IC50, PRL-3 phosphatase activity; for % Phosphatase Activity (compared to DMSO) PRL-3: FDA-approved drug screen
T2 construct: 6xHis (N, cleaved yes); made in house; host or cells: E. coli One Shot BL21 Star

[3] = tested on: HEK293T cells; assay: MTT viability assay; type: cell-based, human; settings: drug doses 1 to 100 µM, 16 h, normalized to 1% DMSO
Method: Cells were seeded into duplicate wells of a 96 well plate at a density of 2 × 10^4 cells per well and allowed to recover for 24 h. Cells were then treated with drug or DMSO at the indicated concentrations for 16 h. Following drug treatment, 10 μL of 5 mg/ml MTT (Sigma, M5655) was added to each well and cells were incubated for 4 h. Finally, media were removed, and the dye was solubilized in 100 μL of 0.1 M HCl in isopropanol. Absorbance was measured at 570 nm and 690 nm with final absorbance measurements as 570–690 nm.

[4] = biological target: T3, recombinant PRL-1 (Homo sapiens, UniProt Q93096); assay: In vitro phosphatase assay (DiFMUP hydrolysis), PRL-1; type: biochemical; settings: for IC50: 2.5 µM protein, DiFMUP at KM, read-out: Calculated IC50, PRL-1 phosphatase activity; for % Phosphatase Activity (compared to DMSO) PRL-1: FDA-approved drug screen
T3 construct: 6xHis (N, cleaved yes); made in house; host or cells: E. coli One Shot BL21 Star
T3 sequence (Q93096 1-173): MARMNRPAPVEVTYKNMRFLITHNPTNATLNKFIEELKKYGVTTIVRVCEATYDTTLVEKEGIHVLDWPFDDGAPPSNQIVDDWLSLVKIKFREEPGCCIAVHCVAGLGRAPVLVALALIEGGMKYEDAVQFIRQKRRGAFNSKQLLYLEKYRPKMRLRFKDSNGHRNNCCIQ

[5] = tested on: HEK293T cells; assay: Scratch (migration) assay, HEK293T transfected with PRL-3 or empty vector; type: cell-based, human; settings: HEK293T transfected with PRL-3, 24 h, compared to DMSO
Method: pENTR-PRL-3 (previously described[51]) was cloned into pLKO-CMV-puro using LR clonase (Thermofisher, 11,791,019) according to manufacturer’s directions. pLKO-CMV empty vector (EV) and pLKO-CMV:PRL-3 were transfected into HEK293T using Lipofectamine 3000 (ThermoFisher, L3000015) according to manufacturer’s protocol. Transfected cells were selected with 1 µg/mL puromycin in complete media to establish the cell line, then were maintained under 0.5 µg/mL puromycin in complete media. For PRL-3 knockdown, pLKO.1-scrambled shRNA and pLKO.1-PRL-3 shRNA[51] plasmids were transfected into HCT116 cells using Lipofectamine 3000 (Thermo Fisher, Cat # L3000015) according to the manufacturer’s directions. Cells were selected for 48 h in 1 µg/mL puromycin before use in assays.
Cells were seeded into duplicate wells of a 48 well plates at a density of 2 × 10^5 cells per well for HEK293T or 4 × 10^5 for HCT116 and SW480. Cells were recovered overnight and were scratched using a p20 pipette tip the following day. Compounds were added at the concentrations indicated. Images were obtained immediately after the scratch and after a 24 h incubation with the drug on an Evos FL inverted microscope (ThermoFisher). The area within the scratch was calculated using ImageJ. The area migrated was measured as the difference in wound area at 0 h and 24 h and the percent change in migration was calculated by dividing the difference in wound area of treatment by the difference in wound area of the control.

T2 sequence (O75365 whole entry): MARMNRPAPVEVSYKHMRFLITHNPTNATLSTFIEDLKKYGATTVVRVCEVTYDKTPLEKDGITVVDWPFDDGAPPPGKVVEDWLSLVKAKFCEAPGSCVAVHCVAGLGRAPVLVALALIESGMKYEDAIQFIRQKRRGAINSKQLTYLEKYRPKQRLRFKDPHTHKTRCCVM

Row | Compound | IC50 [1] | % Phosphatase Activity (compared to DMSO) PRL-2 ([1]; compared to DMSO) | IC50 [2] | % Phosphatase Activity (compared to DMSO) PRL-3 ([2]; compared to DMSO) | viability (MTT) [3] | IC50 [4] | % Phosphatase Activity (compared to DMSO) PRL-1 ([4]; compared to DMSO) | cellular migration in PRL-3 overexpressing cells [5] | % Phosphatase Activity (compared to DMSO) PRL-2 ([1]; activity compared to DMSO) | % Phosphatase Activity (compared to DMSO) PRL-3 ([2]; activity compared to DMSO) | % Phosphatase Activity (compared to DMSO) PRL-1 ([4]; activity compared to DMSO)
1 | Cc1cc(C(C#N)c2ccc(Cl)cc2)c(Cl)cc1NC(=O)c1cc(I)cc(I)c1O (stereo not shown) [Closantel, reference compound] | 14 ± 5 µM | 17% | 11 ± 0.5 µM | 40% | increased MTT absorbance | 17 ± 3 µM | 16% | – | – | – | –
2 | COc1cc(C(=O)O)ccc1NC(=O)[C@@H]1N[C@@H](CC(C)(C)C)[C@](C#N)(c2ccc(Cl)cc2F)[C@H]1c1cccc(Cl)c1F [Idasanutlin, reference compound] | 16 ± 2 µM | – | 13 ± 0.4 µM | – | decreased viability | 20 ± 3 µM | – | less significant effects on the migration of PRL-3 expressing cells | – | – | –
3 | CC(=O)c1cc2c(o1)C(=O)c1ccccc1C2=O [Napabucasin, reference compound] | 1.1 ± 0.3 µM | 26% | 0.7 ± 0.1 µM | 10% | decreased viability | 0.4 ± 0.2 µM | 16% | less significant effects on the migration of PRL-3 expressing cells | – | – | –
4 | COCCn1c2c([n+](Cc3cnccn3)c1C)C(=O)c1ccccc1C2=O [YM155, reference compound] | 0.7 ± 0.1 µM | – | 0.3 ± 0.1 µM | – | decreased viability | 0.3 ± 0.1 µM | – | less significant effects on the migration of PRL-3 expressing cells | – | – | –
5 | Cl.Cl.Cl.O[C@@H](COc1cccc2ncccc12)CN1CCN([C@@H]2c3ccccc3[C@@H]3[C@H](c4ccccc42)C3(F)F)CC1 [Zosuquidar (LY335979) 3HCl] | – | – | – | – | – | – | – | – | 98% | 91% | 107%
6 | O[C@H]1[C@H](O)[C@@H](O)[C@H](O)[C@@H](O)[C@H]1O [i-Inositol] | – | 112% | – | 87% | – | – | 94% | – | – | – | –
7 | NCCCCCC(=O)O [(6-)ε-Aminocaproic acid] | – | 115% | – | 75% | – | – | 110% | – | – | – | –
8 | Atosiban Acetate | – | 80% | – | 90% | – | – | 86% | – | – | – | –
9 | Bacitracin | – | 94% | – | 82% | – | – | 96% | – | – | – | –
10 | Bivalirudin Trifluoroacetate | – | 81% | – | 88% | – | – | 86% | – | – | – | –
11 | Capreomycin Sulfate | – | 95% | – | 113% | – | – | 95% | – | – | – | –
12 | Carbazochrome sodium sulfonate (AC-17) | – | 68% | – | 59% | – | – | 74% | – | – | – | –
